According to patent US20240270762A1, “PENICILLIN-BINDING PROTEIN INHIBITORS” (priority 2021, published 2024):
In brackets after ≈: the same amount, converted by molar mass.

Key:
K. pneumoniae SI-117 = assay: microbe, parasite or virus in culture; assay type: cell-based; settings: Klebsiella pneumoniae, SI117, read-out: MIC K. pneumoniae SI-117
E. coli 901C = assay: microbe, parasite or virus in culture; assay type: cell-based; settings: Escherichia coli, read-out: MIC E. coli 901C
N. gonorrhoeae FA1090 = assay: Liquid broth MIC in Fastidious broth; settings: Neisseria gonorrhoeae, FA1090, read-out: Minimum Inhibitory Concentration (MIC), N. gonorrhoeae FA 1090
K. pneumoniae UMM = assay: microbe, parasite or virus in culture; assay type: cell-based; settings: Klebsiella pneumoniae, read-out: MIC K. pneumoniae UMM
E. coli AG100 = assay: microbe, parasite or virus in culture; assay type: cell-based; settings: Escherichia coli, AG100, read-out: MIC E. coli AG100
E. coli ATCC 25922 = assay: microbe, parasite or virus in culture; assay type: cell-based; settings: Escherichia coli, ATCC25922, read-out: MIC E. coli 25922
[1] = system: P. aeruginosa (ΔmexAB-oprM); assay: Broth microdilution MIC in CAMHB; assay type: cell-based; settings: Pseudomonas aeruginosa; read-out: MIC P. aeruginosa ΔmexAB-oprM
N. gonorrhoeae WHO K = assay: Liquid broth MIC in Fastidious broth; settings: Neisseria gonorrhoeae, read-out: Minimum Inhibitory Concentration (MIC), N. gonorrhoeae WHO K
E. coli D22 = assay: microbe, parasite or virus in culture; assay type: cell-based; settings: Escherichia coli, D22, read-out: MIC E. coli D22
P. aeruginosa ATCC 35151 = assay: microbe, parasite or virus in culture; assay type: cell-based; settings: Pseudomonas aeruginosa, ATCC35151, read-out: MIC P. aeruginosa ATCC 35151
P. aeruginosa ATCC 27853 = assay: microbe, parasite or virus in culture; assay type: cell-based; settings: Pseudomonas aeruginosa, ATCC27853, read-out: MIC P. aeruginosa ATCC 27853
K. pneumoniae 848844 = assay: microbe, parasite or virus in culture; assay type: cell-based; settings: Klebsiella pneumoniae, 848844, read-out: MIC K. pneumoniae 848844
N. gonorrhoeae WHO M = assay: Liquid broth MIC in Fastidious broth; settings: Neisseria gonorrhoeae, read-out: Minimum Inhibitory Concentration (MIC), N. gonorrhoeae WHO M
A. baumannii ATCC 19606 = assay: microbe, parasite or virus in culture; assay type: cell-based; settings: Acinetobacter baumannii, ATCC19606, read-out: MIC, A. baumannii ATCC 19606
N. gonorrhoeae MS11 = assay: Liquid broth MIC in Fastidious broth; settings: Neisseria gonorrhoeae, MS11, read-out: Minimum Inhibitory Concentration (MIC), N. gonorrhoeae MS11
[2] = molecular target: T1, PBP2 from Neisseria gonorrhoeae (FA19) (Neisseria gonorrhoeae, UniProt P08149); assay: Bocillin-FL fluorescence polarization competition binding, N. gonorrhoeae PBP2; settings: fluorescence polarization competition binding assay using Bocillin-FL, read-out: N. gonorrhoeae PBP2 Potency
T1 construct: made in house
T1 sequence (P08149 whole entry): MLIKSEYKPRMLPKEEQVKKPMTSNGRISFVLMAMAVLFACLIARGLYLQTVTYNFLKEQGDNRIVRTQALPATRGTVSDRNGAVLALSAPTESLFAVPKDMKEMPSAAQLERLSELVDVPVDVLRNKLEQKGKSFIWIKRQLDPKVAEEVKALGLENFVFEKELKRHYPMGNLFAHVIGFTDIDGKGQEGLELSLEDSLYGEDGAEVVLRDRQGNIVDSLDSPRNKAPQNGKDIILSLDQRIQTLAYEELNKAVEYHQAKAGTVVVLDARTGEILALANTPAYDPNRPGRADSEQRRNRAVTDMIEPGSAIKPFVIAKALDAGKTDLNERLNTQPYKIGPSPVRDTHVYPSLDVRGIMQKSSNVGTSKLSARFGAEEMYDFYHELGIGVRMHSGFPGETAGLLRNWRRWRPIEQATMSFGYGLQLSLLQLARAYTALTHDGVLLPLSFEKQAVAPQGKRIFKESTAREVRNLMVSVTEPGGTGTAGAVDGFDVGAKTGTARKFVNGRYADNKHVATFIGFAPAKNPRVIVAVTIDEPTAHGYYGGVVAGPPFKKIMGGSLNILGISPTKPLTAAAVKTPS
In short: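 Fluorescence polarization competition with 0.1 μM Bocillin-FL (fluorescent penicillin V) against 0.25 μM N. gonorrhoeae FA19 PBP2 in 50 mM Hepes pH 8.0, 300 mM NaCl, 10% glycerol. Boronic acid inhibitors were preincubated with PBP, then Bocillin-FL was added and FP read (490/520 nm) up to 60 min. EC50 is the concentration halving PBP-bound Bocillin-FL.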

N. gonorrhoeae WHO X = assay: Liquid broth MIC in Fastidious broth; settings: Neisseria gonorrhoeae, read-out: Minimum Inhibitory Concentration (MIC), N. gonorrhoeae WHO X
N. gonorrhoeae WHO Z = assay: Liquid broth MIC in Fastidious broth; settings: Neisseria gonorrhoeae, read-out: Minimum Inhibitory Concentration (MIC), N. gonorrhoeae WHO Z

Compound | MIC (K. pneumoniae SI-117) [µg/mL] | MIC (E. coli 901C) [µg/mL] | MIC (N. gonorrhoeae FA1090) [µg/mL] | MIC (K. pneumoniae UMM) [µg/mL] | MIC (E. coli AG100) [µg/mL] | MIC (E. coli ATCC 25922) [µg/mL] | MIC [1] [µg/mL] | MIC (N. gonorrhoeae WHO K) [µg/mL] | MIC (E. coli D22) [µg/mL] | MIC (P. aeruginosa ATCC 35151) [µg/mL] | MIC (P. aeruginosa ATCC 27853) [µg/mL] | MIC (K. pneumoniae 848844) [µg/mL] | MIC (N. gonorrhoeae WHO M) [µg/mL] | MIC (A. baumannii ATCC 19606) [µg/mL] | MIC (N. gonorrhoeae MS11) [µg/mL] | EC50 [2] [µM] | MIC (N. gonorrhoeae WHO X) [µg/mL] | MIC (N. gonorrhoeae WHO Z) [µg/mL]
CCN1CCN(C(=O)N[C@@H](C(=O)N[C@H]2Cc3cccc(C(=O)O)c3OB2O)c2ccc(P(C)(=O)O)cc2)C(=O)C1=O (single isomer, unassigned) [Example 47] | > 128 | < 1 | < 1 | > 128 | 8 to 16 (≈ 13.6 to 27.3 µM) | 8 to 16 (≈ 13.6 to 27.3 µM) | 8 to 16 (≈ 13.6 to 27.3 µM) | 4 to 8 (≈ 6.82 to 13.6 µM) | 2 to 4 (≈ 3.41 to 6.82 µM) | < 1 | > 128 | > 128 | < 1 | 32 to 64 (≈ 54.6 to 109 µM) | < 1 | < 10 | 4 to 8 (≈ 6.82 to 13.6 µM) | 1 to 2 (≈ 1.71 to 3.41 µM)
CS(=O)(=O)N1CCC[C@@H]1C(=O)N[C@@H](C(=O)N[C@H]1Cc2cccc(C(=O)O)c2OB1O)c1ccc(P(=O)(O)O)cc1 [Example 35, (R)-2-hydroxy-3-((R)-2-((R)-1-(methylsulfonyl)pyrrolidine-2-carboxamido)-2-(4-phosphonophenyl)acetamido)-3,4-dihydro-2H-benzo[e][1,2]oxaborinine-8-carboxylic acid] | > 128 | 8 to 16 (≈ 13.4 to 26.9 µM) | < 1 | > 128 | > 128 | > 128 | > 128 | 4 to 8 (≈ 6.72 to 13.4 µM) | 8 to 16 (≈ 13.4 to 26.9 µM) | 2 to 4 (≈ 3.36 to 6.72 µM) | > 128 | > 128 | < 1 | > 128 | 1 to 2 (≈ 1.68 to 3.36 µM) | < 10 | 16 to 32 (≈ 26.9 to 53.8 µM) | 4 to 8 (≈ 6.72 to 13.4 µM)
CC(C)C(=O)NC(C(=O)N[C@H]1Cc2cccc(C(=O)O)c2OB1O)c1ccc(P(=O)(O)O)cc1 (stereo partly drawn) [Example 28, (3R)-2-hydroxy-3-(2-isobutyramido-2-(4-phosphonophenyl)acetamido)-3,4-dihydro-2H-benzo[e][1,2]oxaborinine-8-carboxylic acid] | > 128 | 8 to 16 (≈ 16.3 to 32.6 µM) | 4 to 8 (≈ 8.16 to 16.3 µM) | > 128 | > 128 | > 128 | > 128 | 16 to 32 (≈ 32.6 to 65.3 µM) | 32 to 64 (≈ 65.3 to 131 µM) | 8 to 16 (≈ 16.3 to 32.6 µM) | > 128 | > 128 | 4 to 8 (≈ 8.16 to 16.3 µM) | > 128 | 16 to 32 (≈ 32.6 to 65.3 µM) | < 10 | 16 to 32 (≈ 32.6 to 65.3 µM) | 16 to 32 (≈ 32.6 to 65.3 µM)
CCN1CCN(C(=O)NC(C(=O)N[C@H]2Cc3cccc(C(=O)O)c3OB2O)c2ccc(P(=O)(O)O)cc2)C1=O (stereo partly drawn) [Example 42, (3R)-3-(2-(3-ethyl-2-oxoimidazolidine-1-carboxamido)-2-(4-phosphonophenyl)acetamido)-2-hydroxy-3,4-dihydro-2H-benzo[e][1,2]oxaborinine-8-carboxylic acid] | > 128 | < 1 | < 1 | 32 to 64 (≈ 57.1 to 114 µM) | 32 to 64 (≈ 57.1 to 114 µM) | 32 to 64 (≈ 57.1 to 114 µM) | 8 to 16 (≈ 14.3 to 28.6 µM) | 1 to 2 (≈ 1.78 to 3.57 µM) | 2 to 4 (≈ 3.57 to 7.14 µM) | < 1 | > 128 | > 128 | < 1 | 32 to 64 (≈ 57.1 to 114 µM) | < 1 | < 10 | 1 to 2 (≈ 1.78 to 3.57 µM) | < 1
O=C(N[C@H](C(=O)N[C@H]1Cc2cccc(C(=O)O)c2OB1O)c1ccc(P(=O)(O)O)cc1)c1ccc(C(F)(F)F)cn1 (single isomer, unassigned) [Example 192] | > 128 | < 1 | < 1 | > 128 | > 128 | > 128 | 32 to 64 (≈ 53.9 to 108 µM) | 4 to 8 (≈ 6.74 to 13.5 µM) | 8 to 16 (≈ 13.5 to 27 µM) | 8 to 16 (≈ 13.5 to 27 µM) | > 128 | > 128 | < 1 | > 128 | 1 to 2 (≈ 1.69 to 3.37 µM) | < 10 | 16 to 32 (≈ 27 to 53.9 µM) | 1 to 2 (≈ 1.69 to 3.37 µM)
